Measurements published in ChEMBL document CHEMBL1938259, “Novel substituted pyrimidines as HCV replication (replicase) inhibitors” (Bioorg Med Chem Lett, 2012).

Tests used:
Rattus norvegicus = test: AUC (0 to 24 hrs) in rat at 10 mg/kg, po and 2 mg/kg, iv; assay type: ADME, organism-based, Plasma; details: in vivo
Canis familiaris = test: AUC (0 to 24 hrs) in dog at 2 mg/kg, po; assay type: ADME, organism-based, Canis lupus familiaris, Plasma; set-up: time < 24 hr, dose 2 mg/kg, route oral; details: in vivo

AUC (Rattus norvegicus) [µM·h] | AUC (Canis familiaris) [µM·h] | Structure (SMILES)
0.6 |  | Nc1nc(Cl)c(C#Cc2nccs2)c(N[C@@H]2C[C@H](CO)[C@@H](O)[C@H]2O)n1
1.6 | 2.2 | Nc1nc(Cl)c(C#Cc2ccsc2)c(N[C@@H]2C[C@H](CO)[C@@H](O)[C@H]2O)n1
